Reference: US9474758B2, “Thienopyrimidinedione derivatives as TRPA1 modulators” (Glenmark Pharmaceuticals S.A., priority 2009, dated 2016)
Values belong to the molecule of their own block, whether it stands above or below them.

How the values were obtained:
[1] = target: T1, Human TRPA1 expressing CHO cells (Homo sapiens, UniProt O75762); experiment: 45Calcium uptake assay, inhibition of AITC induced calcium uptake (human); format: cell-based; details: human TRPA1 CHO cells, AITC 30 μM; for inhibition at 1 µM: compound 1.0 μM, read-out: Percentage inhibition at 1.0 μM; for inhibition at 10 µM: compound 10.0 μM, read-out: Percentage inhibition at 10.0 μM; for IC50: read-out: Human IC50 value (Range)
T1 construct: expressed in transfected cells; host or cells: CHO cells (G-418 selection)
T1 sequence (O75762 whole entry): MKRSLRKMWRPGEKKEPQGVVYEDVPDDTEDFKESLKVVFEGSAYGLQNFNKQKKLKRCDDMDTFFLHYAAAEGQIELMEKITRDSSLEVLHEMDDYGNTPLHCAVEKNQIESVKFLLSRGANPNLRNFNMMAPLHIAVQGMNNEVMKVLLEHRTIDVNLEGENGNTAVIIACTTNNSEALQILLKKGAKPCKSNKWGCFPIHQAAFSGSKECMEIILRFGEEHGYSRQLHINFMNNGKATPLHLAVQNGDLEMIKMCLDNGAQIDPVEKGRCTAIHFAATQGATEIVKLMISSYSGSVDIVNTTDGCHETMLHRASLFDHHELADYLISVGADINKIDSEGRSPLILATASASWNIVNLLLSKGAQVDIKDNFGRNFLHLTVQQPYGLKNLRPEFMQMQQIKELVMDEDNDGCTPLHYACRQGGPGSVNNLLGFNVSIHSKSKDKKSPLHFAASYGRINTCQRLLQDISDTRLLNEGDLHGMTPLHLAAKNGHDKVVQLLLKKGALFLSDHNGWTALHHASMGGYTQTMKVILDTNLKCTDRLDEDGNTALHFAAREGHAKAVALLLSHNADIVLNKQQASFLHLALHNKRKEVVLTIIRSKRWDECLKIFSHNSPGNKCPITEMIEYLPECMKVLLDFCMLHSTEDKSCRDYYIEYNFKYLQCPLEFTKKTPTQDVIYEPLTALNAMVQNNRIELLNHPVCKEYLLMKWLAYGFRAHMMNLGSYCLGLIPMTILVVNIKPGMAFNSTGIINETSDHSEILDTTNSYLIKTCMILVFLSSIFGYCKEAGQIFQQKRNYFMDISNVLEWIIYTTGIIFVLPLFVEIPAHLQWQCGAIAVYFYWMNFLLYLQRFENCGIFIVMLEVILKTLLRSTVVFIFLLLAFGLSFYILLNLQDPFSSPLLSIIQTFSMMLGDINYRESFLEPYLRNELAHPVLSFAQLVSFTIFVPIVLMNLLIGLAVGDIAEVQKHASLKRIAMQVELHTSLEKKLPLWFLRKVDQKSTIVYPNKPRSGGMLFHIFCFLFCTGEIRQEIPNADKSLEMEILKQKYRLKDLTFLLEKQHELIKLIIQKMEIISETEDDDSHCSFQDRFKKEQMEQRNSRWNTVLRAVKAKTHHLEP
Method: (§1) Screening for TRPA1 Antagonist Using the ^45Calcium Uptake Assay:
(§2) The inhibition of TRPA1 receptor activation was measured as inhibition of allyl isothiocyanate (AITC) induced cellular uptake of radioactive calcium.
(§3) Test compounds were dissolved in 100% DMSO to prepare 10 mM stock and then diluted using plain medium with 0.1% BSA and 1.8 mM CaCl2 to get the desired concentration. The final concentration of DMSO in the reaction was 0.5% (v/v). […] Rat TRPA1 expressing CHO cells were grown in F-12 DMEM medium with 10% FBS, 1% penicillin-streptomycin solution, and 400 μg/ml of Zeocin. […] Cells were treated with the test compounds for 10 minutes followed by the addition of AITC at a final concentration of 30 μM (for human TRPA1) and/or 10 μM (for rat TRPA1) and 5 μCi/ml ^45Ca^+2 for 3 minutes. Cells were washed and lysed using a buffer containing 1% Triton X-100, 0.1% deoxycholate and 0.1% SDS. Radioactivity in the lysate was measured in a Packard TopCount after addition of liquid scintillant.
(§4) Concentration response curves were plotted as a % of maximal response obtained in the absence of test antagonist. IC50 values can be calculated from concentration response curve by nonlinear regression analysis using GraphPad PRISM software.

[2] = target: T2, Rat TRPA1 expressing CHO cells (Rattus norvegicus, UniProt Q6RI86); experiment: 45Calcium uptake assay, inhibition of AITC induced calcium uptake (rat); format: cell-based; details: rat TRPA1 CHO cells, AITC 10 μM; for IC50: read-out: Rat IC50 value (Range); for inhibition at 1 µM: compound 1.0 μM, read-out: Percentage inhibition at 1.0 μM; for inhibition at 10 µM: compound 10.0 μM, read-out: Percentage inhibition at 10.0 μM
T2 construct: expressed in transfected cells; host or cells: CHO cells (Zeocin selection)
T2 sequence (Q6RI86 whole entry): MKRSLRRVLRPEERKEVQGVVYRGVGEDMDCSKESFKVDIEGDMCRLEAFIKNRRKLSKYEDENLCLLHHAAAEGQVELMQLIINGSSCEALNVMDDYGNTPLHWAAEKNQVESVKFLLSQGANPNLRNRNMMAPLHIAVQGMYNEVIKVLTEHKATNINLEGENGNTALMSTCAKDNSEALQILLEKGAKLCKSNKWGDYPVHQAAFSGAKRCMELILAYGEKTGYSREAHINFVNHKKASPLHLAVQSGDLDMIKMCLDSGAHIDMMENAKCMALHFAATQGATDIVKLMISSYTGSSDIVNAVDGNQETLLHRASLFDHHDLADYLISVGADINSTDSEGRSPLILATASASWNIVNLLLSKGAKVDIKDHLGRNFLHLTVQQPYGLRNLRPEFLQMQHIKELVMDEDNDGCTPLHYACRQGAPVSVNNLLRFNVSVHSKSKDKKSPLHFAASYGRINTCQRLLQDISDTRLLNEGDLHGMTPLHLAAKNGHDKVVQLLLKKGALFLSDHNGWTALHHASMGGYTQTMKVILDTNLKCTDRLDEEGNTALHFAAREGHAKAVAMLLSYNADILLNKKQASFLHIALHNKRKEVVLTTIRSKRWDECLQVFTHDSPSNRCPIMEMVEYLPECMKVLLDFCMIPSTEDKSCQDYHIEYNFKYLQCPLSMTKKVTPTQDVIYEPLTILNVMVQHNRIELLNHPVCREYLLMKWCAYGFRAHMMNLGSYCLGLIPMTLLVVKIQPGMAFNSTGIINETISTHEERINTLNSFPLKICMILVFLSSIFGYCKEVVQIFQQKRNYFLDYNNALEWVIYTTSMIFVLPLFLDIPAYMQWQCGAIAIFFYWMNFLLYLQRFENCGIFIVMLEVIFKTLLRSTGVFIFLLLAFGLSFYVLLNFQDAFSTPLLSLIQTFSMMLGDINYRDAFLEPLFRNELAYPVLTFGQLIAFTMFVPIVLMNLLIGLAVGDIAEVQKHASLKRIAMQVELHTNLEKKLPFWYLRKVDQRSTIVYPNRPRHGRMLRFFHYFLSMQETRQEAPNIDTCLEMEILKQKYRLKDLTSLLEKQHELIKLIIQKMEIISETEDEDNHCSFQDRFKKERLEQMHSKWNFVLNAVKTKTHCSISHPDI
Method: as §1, §2, §3, §4

SMILES: Cn1c(=O)c2c(CC(=O)Nc3nc(-c4ccc(F)c(C(F)(F)F)c4F)cs3)csc2n(C)c1=O [Example 13, N-{4-[2,4-Difluoro-3-(trifluoromethyl)phenyl]-1,3-thiazol-2-yl}-2-(1,3-dimethyl-2,4-dioxo-1,2,3,4-tetrahydrothieno[2,3-d]pyrimidin-5-yl)acetamide]
inhibition at 1 µM [1]: 98.2% | inhibition at 10 µM [1]: 98.1% | IC50 [1]: < 0.05 µM | IC50 [2]: < 0.05 µM

SMILES: Cc1sc2c(c1CC(=O)Nc1nc(-c3ccc(C(C)(C)C)cc3)cs1)c(=O)n(C)c(=O)n2C [Example 17, N-[4-(4-tert-Butylphenyl)-1,3-thiazol-2-yl]-2-(1,3,6-trimethyl-2,4-dioxo-1,2,3,4-tetrahydrothieno[2,3-d]pyrimidin-5-yl)acetamide]
inhibition at 1 µM [1]: 97.5% | inhibition at 10 µM [1]: 98.8% | IC50 [1]: 0.05 to 0.5 µM | inhibition at 1 µM [2]: 93.1% | inhibition at 10 µM [2]: 99.2% | IC50 [2]: 0.05 to 0.5 µM

SMILES: Cc1sc2c(c1CC(=O)Nc1nc(-c3ccc(Cl)cc3)cs1)c(=O)n(C)c(=O)n2C [Example 19, N-[4-(4-Chlorophenyl)-1,3-thiazol-2-yl]-2-(1,3,6-trimethyl-2,4-dioxo-1,2,3,4-tetrahydrothieno[2,3-d]pyrimidin-5-yl)acetamide]
inhibition at 1 µM [1]: 95% | inhibition at 10 µM [1]: 98.2% | IC50 [1]: 0.05 to 0.5 µM | inhibition at 1 µM [2]: 89.4% | inhibition at 10 µM [2]: 99.2%

SMILES: Cc1sc2c(c1CC(=O)Nc1nc(-c3cccc(F)c3F)cs1)c(=O)n(C)c(=O)n2C [Example 21, N-[4-(2,3-Difluorophenyl)-1,3-thiazol-2-yl]-2-(1,3,6-trimethyl-2,4-dioxo-1,2,3,4-tetrahydrothieno[2,3-d]pyrimidin-5-yl)acetamide]
inhibition at 1 µM [1]: 95.4% | inhibition at 10 µM [1]: 100% | IC50 [1]: 0.05 to 0.5 µM | inhibition at 1 µM [2]: 93.5% | inhibition at 10 µM [2]: 99.7%

SMILES: Cc1sc2c(c1CC(=O)Nc1nc(-c3ccc(F)c(C(F)(F)F)c3)cs1)c(=O)n(C)c(=O)n2C [Example 23, N-{4-[4-Fluoro-3-(trifluoromethyl)phenyl]-1,3-thiazol-2-yl}-2-(1,3,6-trimethyl-2,4-dioxo-1,2,3,4-tetrahydrothieno[2,3-d]pyrimidin-5-yl)acetamide]
inhibition at 1 µM [1]: 97.7% | inhibition at 10 µM [1]: 99% | IC50 [1]: < 0.05 µM | inhibition at 1 µM [2]: 100% | inhibition at 10 µM [2]: 99.7% | IC50 [2]: 0.05 to 0.5 µM

SMILES: Cc1sc2c(c1CC(=O)Nc1nc(-c3ccc(C(F)(F)F)c(F)c3)cs1)c(=O)n(C)c(=O)n2C [Example 24, N-{4-[3-Fluoro-4-(trifluoromethyl)phenyl]-1,3-thiazol-2-yl}-2-(1,3,6-trimethyl-2,4-dioxo-1,2,3,4-tetrahydrothieno[2,3-d]pyrimidin-5-yl)acetamide]
inhibition at 1 µM [1]: 98.5% | inhibition at 10 µM [1]: 99.9% | IC50 [1]: < 0.05 µM | inhibition at 1 µM [2]: 99.8% | inhibition at 10 µM [2]: 100% | IC50 [2]: 0.05 to 0.5 µM

SMILES: Cc1sc2c(c1CC(=O)Nc1nc(-c3ccc(OC(F)(F)F)c(F)c3)cs1)c(=O)n(C)c(=O)n2C [Example 26, N-{4-[3-Fluoro-4-(trifluoromethoxy)phenyl]-1,3-thiazol-2-yl}-2-(1,3,6-trimethyl-2,4-dioxo-1,2,3,4-tetrahydrothieno[2,3-d]pyrimidin-5-yl)acetamide]
inhibition at 1 µM [1]: 100% | inhibition at 10 µM [1]: 100% | IC50 [1]: < 0.05 µM | inhibition at 1 µM [2]: 98.2% | inhibition at 10 µM [2]: 98.1% | IC50 [2]: 0.05 to 0.5 µM

The next lines start with the values.

inhibition at 1 µM [1]: 99.1% | inhibition at 10 µM [1]: 99.1% | IC50 [1]: < 0.05 µM | inhibition at 1 µM [2]: 38.7% | inhibition at 10 µM [2]: 98.7%
SMILES: Cn1c(=O)c2c(CC(=O)Nc3nc(-c4cc(F)c(C(F)(F)F)c(F)c4)cs3)csc2n(C)c1=O [Example 16, N-{4-[3,5-Difluoro-4-(trifluoromethyl)phenyl]-thiazol-2-yl}-2-(1,3-dimethyl-2,4-dioxo-1,2,3,4-tetrahydrothieno[2,3-d]pyrimidin-5-yl)acetamide]

inhibition at 1 µM [1]: 98.5% | inhibition at 10 µM [1]: 100% | IC50 [1]: 0.05 to 0.5 µM | inhibition at 1 µM [2]: 95.7% | inhibition at 10 µM [2]: 100%
SMILES: Cc1sc2c(c1CC(=O)Nc1nc(-c3cccc(OC(F)(F)F)c3)cs1)c(=O)n(C)c(=O)n2C [Example 18, N-{4-[3-(Trifluoromethoxy)phenyl]-1,3-thiazol-2-yl}-2-(1,3,6-trimethyl-2,4-dioxo-1,2,3,4-tetrahydrothieno[2,3-d]pyrimidin-5-yl)acetamide]

inhibition at 1 µM [1]: 99% | inhibition at 10 µM [1]: 99.6% | IC50 [1]: < 0.05 µM | inhibition at 1 µM [2]: 83.4% | inhibition at 10 µM [2]: 91.2% | IC50 [2]: 0.05 to 0.5 µM
SMILES: Cc1sc2c(c1CC(=O)Nc1nc(-c3ccc(Cl)c(Cl)c3)cs1)c(=O)n(C)c(=O)n2C [Example 20, N-[4-(3,4-Dichlorophenyl)-1,3-thiazol-2-yl]-2-(1,3,6-trimethyl-2,4-dioxo-1,2,3,4-tetrahydrothieno[2,3-d]pyrimidin-5-yl)acetamide]

inhibition at 1 µM [1]: 89.8% | inhibition at 10 µM [1]: 100% | IC50 [1]: 0.05 to 0.5 µM | inhibition at 1 µM [2]: 89.8% | inhibition at 10 µM [2]: 99.8%
SMILES: Cc1sc2c(c1CC(=O)Nc1nc(-c3ccc(F)cc3F)cs1)c(=O)n(C)c(=O)n2C [Example 22, N-[4-(2,4-Difluorophenyl)-1,3-thiazol-2-yl]-2-(1,3,6-trimethyl-2,4-dioxo-1,2,3,4-tetrahydrothieno[2,3-d]pyrimidin-5-yl)acetamide]

inhibition at 1 µM [1]: 98.5% | inhibition at 10 µM [1]: 98.8% | IC50 [1]: < 0.05 µM | inhibition at 1 µM [2]: 99.2% | inhibition at 10 µM [2]: 99.3% | IC50 [2]: 0.05 to 0.5 µM
SMILES: Cc1sc2c(c1CC(=O)Nc1nc(-c3ccc(F)c(OC(F)(F)F)c3)cs1)c(=O)n(C)c(=O)n2C [Example 25, N-{4-[4-Fluoro-3-(trifluoromethoxy)phenyl]-1,3-thiazol-2-yl}-2-(1,3,6-trimethyl-2,4-dioxo-1,2,3,4-tetrahydrothieno[2,3-d]pyrimidin-5-yl)acetamide]

inhibition at 1 µM [1]: 93.2% | inhibition at 10 µM [1]: 99.1% | IC50 [1]: < 0.05 µM | inhibition at 1 µM [2]: 97.9% | inhibition at 10 µM [2]: 98% | IC50 [2]: 0.05 to 0.5 µM
SMILES: Cc1sc2c(c1CC(=O)Nc1nc(-c3ccc(F)c(C(F)(F)F)c3F)cs1)c(=O)n(C)c(=O)n2C [Example 27, N-{4-[2,4-Difluoro-3-(trifluoromethyl)phenyl]-1,3-thiazol-2-yl}-2-(1,3,6-trimethyl-2,4-dioxo-1,2,3,4-tetrahydrothieno[2,3-d]pyrimidin-5-yl)acetamide]

inhibition at 1 µM [1]: 88.9% | inhibition at 10 µM [1]: 98.4% | IC50 [1]: 0.05 to 0.5 µM | inhibition at 1 µM [2]: 46.4% | inhibition at 10 µM [2]: 83.6%
SMILES: CCc1sc2c(c1CC(=O)Nc1nc(-c3ccc(C#N)cc3)cs1)c(=O)n(C)c(=O)n2C [Example 30, N-[4-(4-Cyanophenyl)-1,3-thiazol-2-yl]-2-(6-ethyl-1,3-dimethyl-2,4-dioxo-1,2,3,4-tetrahydrothieno[2,3-d]pyrimidin-5-yl)acetamide]

inhibition at 1 µM [1]: 98% | inhibition at 10 µM [1]: 98.5% | IC50 [1]: < 0.05 µM | inhibition at 1 µM [2]: 96.8% | inhibition at 10 µM [2]: 97.3% | IC50 [2]: 0.05 to 0.5 µM
SMILES: CCc1sc2c(c1CC(=O)Nc1nc(-c3ccc(C(F)(F)F)c(F)c3)cs1)c(=O)n(C)c(=O)n2C [Example 31, N-{4-[3-Fluoro-4-(trifluoromethyl)phenyl]-1,3-thiazol-2-yl}-2-(6-ethyl-1,3-dimethyl-2,4-dioxo-1,2,3,4-tetrahydrothieno[2,3-d]pyrimidin-5-yl)acetamide]

inhibition at 1 µM [1]: 99.2% | inhibition at 10 µM [1]: 99.3% | IC50 [1]: < 0.05 µM | inhibition at 1 µM [2]: 99.9% | inhibition at 10 µM [2]: 98.8% | IC50 [2]: < 0.05 µM
SMILES: CCc1sc2c(c1CC(=O)Nc1nc(-c3ccc(F)c(C(F)(F)F)c3F)cs1)c(=O)n(C)c(=O)n2C [Example 32]

inhibition at 1 µM [1]: 96.9% | inhibition at 10 µM [1]: 96.9% | IC50 [1]: < 0.05 µM | inhibition at 1 µM [2]: 96.5% | inhibition at 10 µM [2]: 97.3% | IC50 [2]: 0.05 to 0.5 µM
SMILES: CCc1sc2c(c1CC(=O)Nc1nc(-c3cc(F)c(OC(F)F)c(F)c3)cs1)c(=O)n(C)c(=O)n2C [Example 33, N-{4-[4-(Difluoromethoxy)-3,5-difluorophenyl]-1,3-thiazol-2-yl}-2-(6-ethyl-1,3-dimethyl-2,4-dioxo-1,2,3,4-tetrahydrothieno[2,3-d]pyrimidin-5-yl)acetamide]

inhibition at 1 µM [1]: 97.4% | inhibition at 10 µM [1]: 98.4% | IC50 [1]: < 0.05 µM | inhibition at 1 µM [2]: 88.7% | inhibition at 10 µM [2]: 93.3% | IC50 [2]: 0.05 to 0.5 µM
SMILES: CCc1sc2c(c1CC(=O)Nc1nc(-c3cc(F)c(OCC(F)(F)F)c(F)c3)cs1)c(=O)n(C)c(=O)n2C [Example 34, N-{4-[3,5-Difluoro-4-(2,2,2-trifluoroethoxy)phenyl]-1,3-thiazol-2-yl}-2-(6-ethyl-1,3-dimethyl-2,4-dioxo-1,2,3,4-tetrahydrothieno[2,3-d]pyrimidin-5-yl)acetamide]
